ChEMBL document CHEMBL1201862, “PubChem BioAssay data set” (2004)
Active and inactive are the calls of the source.

Assays:
[1] = HEK293 cell cytotoxicity, dose response, cytotoxicity control, plate reader, cherry-picked samples (AID 743446); assay type: functional, cell-based
[2] = Luminescence-based counterscreen assay for KLF5 inhibitors: dose response cell-based high throughput screening assay to identify cytotoxic compounds using the IEC-6 intestinal epithelial cell line. [Related pubchem assays: 1700 (Primary screen.), 1834 (Confirmation screen.), 1858 (Summary AID.), 1905 (Counterscreen.)]; assay type: functional
[3] = LGR2 antagonists, dose response, cell-based, HEK293, CRE-luciferase reporter, cherry pick, set 2 (AID 743343); assay type: functional;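 further: transfected cells were stimulated with diluted bursicon conditioned medium after compound addition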
[4] = HepG2 cell cytotoxicity, dose response, cytotoxicity control, plate reader, cherry-pick, antagonist series (AID 743416); assay type: functional, cell-based
[5] = A549 cell cytotoxicity, dose response, cytotoxicity control, plate reader, cherry-pick, antagonist series (AID 743412); assay type: functional, cell-based
[6] = MC4R antagonists, dose response, counter-screen for LGR2 antagonist project, cell-based, plate reader, cherry pick (AID 743444); assay type: functional;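 further: transfected HEK 293 cells stimulated with alpha-MSH peptide; potency of inhibitors of the alpha-MSH evoked signal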
[7] = molecular target: 26S proteasome non-ATPase regulatory subunit 14 (Homo sapiens, UniProt O00487); assay: inhibition of proteasome subunit RPN11 – biochemical, fluorescence polarization, uHTS hits, confirmation (AID 602368); assay type: functional
[8] = molecular target: T1, Carboxy-terminal domain RNA polymerase II polypeptide A small phosphatase 1 (Homo sapiens, UniProt Q9GZU7); assay: inhibitors of CTDSP1, concentration-response testing, biochemical assay, absorbance-based, actives from ultra-high-throughput screening (AID 540297); assay type: functional
T1 sequence (Q9GZU7 whole entry): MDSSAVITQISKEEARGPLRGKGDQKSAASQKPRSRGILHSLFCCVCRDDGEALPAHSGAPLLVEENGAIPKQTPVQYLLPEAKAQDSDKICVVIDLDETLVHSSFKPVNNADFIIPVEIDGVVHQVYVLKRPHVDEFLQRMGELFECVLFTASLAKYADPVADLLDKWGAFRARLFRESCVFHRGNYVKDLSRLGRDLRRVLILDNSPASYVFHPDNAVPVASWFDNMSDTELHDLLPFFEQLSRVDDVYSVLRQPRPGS

[9] = molecular target: T2, Heat shock factor protein 1 (Mus musculus, UniProt P38532); assay: inhibition of MG132-induced HSE-luciferase signal, confirmation, cell-based, NIH3T3, luminescence, dose retest (AID 2382); assay type: functional;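 further: NIH3T3 fibroblasts with HSF1-driven luciferase reporter stressed by proteasome inhibitor MG132; luminescence from HSF1-driven luciferase expression after 8 hours of MG132 stress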
T2 sequence (P38532 whole entry): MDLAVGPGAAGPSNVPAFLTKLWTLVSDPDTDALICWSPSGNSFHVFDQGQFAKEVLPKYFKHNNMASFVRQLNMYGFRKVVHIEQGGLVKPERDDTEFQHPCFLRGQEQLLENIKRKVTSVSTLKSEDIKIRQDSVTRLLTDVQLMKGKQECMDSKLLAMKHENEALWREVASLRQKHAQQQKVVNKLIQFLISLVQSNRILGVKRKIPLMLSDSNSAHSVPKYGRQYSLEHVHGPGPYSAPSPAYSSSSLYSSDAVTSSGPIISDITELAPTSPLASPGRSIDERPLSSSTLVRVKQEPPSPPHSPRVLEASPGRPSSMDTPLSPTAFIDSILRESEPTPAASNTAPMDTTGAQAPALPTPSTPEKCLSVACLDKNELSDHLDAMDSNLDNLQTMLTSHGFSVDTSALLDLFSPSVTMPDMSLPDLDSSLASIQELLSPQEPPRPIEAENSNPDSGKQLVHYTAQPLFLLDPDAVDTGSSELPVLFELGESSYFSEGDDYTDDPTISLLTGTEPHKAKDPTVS

[10] = molecular target: T3, Voltage-gated N-type calcium channel alpha-1B subunit/Amyloid beta A4 precursor protein-binding family A member 1 (Homo sapiens, UniProt Q00975+Q02410); assay type: protein assay
[11] = A High Throughput Confirmatory Assay used to Identify Novel Compounds that Inhibit Mycobacterium Tuberculosis in the absence of Glycerol.; assay type: functional
[12] = molecular target: T3, Voltage-gated N-type calcium channel alpha-1B subunit/Amyloid beta A4 precursor protein-binding family A member 1; assay type: protein assay; remark: listed apart in the source
[13] = molecular target: Prothrombin (Bos taurus, UniProt P00735); assay: thrombin inhibition, dose response, biochemical, fluorescence polarization, uHTS hits (AID 602369); assay type: functional
[14] = molecular target: 72 kDa type IV collagenase (Homo sapiens, UniProt P08253); assay: Dose Response validation of uHTS RPN11 inhibitor hits using a MMP-2 Fluorescence assay.; assay type: functional
[15] = Luminescence Cell-Based Dose-Confimation HTS to Identify Inhibitors of 5'UTR Stem-Loop Driven Alpha-Synuclein mRNA Translation in H4 Neuroglioblastoma Cells. [Related pubchem assays: 1827 (Project Summary), 1813 (Primary HTS)]; assay type: functional
[16] = system: INS1; assay: beta cell apoptosis inhibitors, cytokine rescue, dose response, luminescence, retest (AID 449756); assay type: functional, cell-based; conditions: Rattus norvegicus;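 further: cell death triggered by IL-1 beta plus TNF-alpha plus IFN-gamma mixture; protective hits raise ATP signal compared with cytokine alone wells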
[17] = cytotoxicity toward NIH3T3 fibroblasts, dose response, counter-screen, cell-based, ATP luminescence, mouse fibroblasts (AID 2010); assay type: functional;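 further: cells exposed to compound for about 90 hours before reading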
[18] = molecular target: 5-hydroxytryptamine receptor 1E (Homo sapiens, UniProt P28566); assay: Counterscreen assay for S1P3 antagonists: Dose response cell-based high throughput screening assay to identify antagonists of the 5-Hydroxytryptamine Receptor Subtype 1E (5HT1E). [Related pubchem assays: 1429, 485 ]; assay type: functional
[19] = molecular target: Sphingosine 1-phosphate receptor 3 (Homo sapiens, UniProt Q99500); assay: Dose response cell-based high throughput screening assay for antagonists of the Sphingosine 1-Phosphate Receptor 3 (S1P3). [Related pubchem assays: 1429, 485 ]; assay type: functional
[20] = inhibitors of intracellular T. cruzi replication, confirmation, NIH3T3 host cells, beta-gal luminescence (AID 2044); assay type: functional, cell-based;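 further: intracellular parasites grown in NIH/3T3 mouse fibroblasts as host cells; luminescent beta-galactosidase reporter signal from transgenic T. cruzi replicating inside host cells; inhibitors lower the luminescence signal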
[21] = inhibitors of firefly luciferase expression or activity, dose response, H4 neuroglioma cells, luminescence (AID 1990); assay type: functional, cell-based
[22] = molecular target: Nonstructural protein 1 (Influenza A virus, UniProt Q194T2); assay type: functional, Influenza A virus (A/California/07/2009(H1N1))
[23] = inhibitors of SNCA 5'UTR-driven reporter translation, confirmation, H4 neuroglioma cells, luminescence (AID 1988); assay type: functional, cell-based
[24] = cells; assay type: functional, cell-based
[25] = molecular target: Scavenger receptor class B member 1 (Mus musculus, UniProt Q61009); assay: inhibitors of SR-BI mediated HDL lipid uptake, dose response, ldlA[mSR-BI] cells, fluorescence, cherry pick (AID 493194); assay type: functional, cell-based;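 further: cellular uptake of fluorescent DiI-labeled HDL measured as cell fluorescence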
[26] = Luminescence Cell-Based Dose Response HTS to Identify Inhibitors of 5'UTR Stem-Loop Driven Prion Protein mRNA Translation in H4 Neuroglioblastoma Cells. [Related pubchem assays: 1827 (Project Summary), 1813 (Primary HTS)]; assay type: functional
[27] = enhancers of respiration in Yfh1-depleted yeast, dose response, Friedreich's ataxia, plus single-dose screen (AID 1465); assay type: functional;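 further: yeast depleted of Yfh1p frataxin homolog grown on glycerol needing respiration; WST-1 tetrazolium dye reduction as measure of cellular dehydrogenase metabolic activity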
[28] = AlphaScreen signal interference compounds, dose response, artefact control for ARNT-TACC3 interaction inhibitor project, biochemical, luminescence, cherry-pick (AID 651705); assay type: functional;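 further: AlphaScreen bead proximity signal that flags compounds interfering with the detection technology; potency reflects signal decrease which marks the compound as an assay artifact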
[29] = cytotoxicity in HPDE-C7 cells, cell-based, fluorescence, HTS (AID 430); assay type: functional; conditions: Homo sapiens
[30] = cytotoxicity in KRAS-transformed pancreatic duct cells, primary screen, cell-based, fluorescence, HTS (AID 431); assay type: functional; conditions: Homo sapiens;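 further: cell line used: HPDE-C7K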
[31] = cells; assay type: functional, cell-based; remark: listed apart in the source
[32] = molecular target: T4, Estrogen receptor beta (Homo sapiens, UniProt Q92731); assay: ERβ–SRC-3 coactivator interaction inhibitors, confirmation, orthogonal assay, biochemical, ELISA, streptavidin-HRP readout (AID 1060)
[33] = molecular target: T4, Estrogen receptor beta
[34] = A Cell Based Assay for the Identification of Probe candidate Compounds with Anti- Venezuelan Equine Encephalitis virus. [Related pubchem assays: 2409, 2419, 1621, 2238, 2405, 2024, 2065, 2402, 2414, 1635, 1650, 2244 ]; assay type: functional
[35] = system: Vero; assay: cytotoxicity of synthesized analogs in Vero cells, SAR follow-up, cytotoxicity control for West Nile virus antiviral project, cell-based, set II (AID 2402); assay type: functional; conditions: Chlorocebus sabaeus
[36] = molecular target: Sphingosine 1-phosphate receptor 2 (Homo sapiens, UniProt O95136); assay: Dose Response Cell Based Assay for Agonists of the S1P2 Receptor of Purchased Analogues. [Related pubchem assays: 729, 843, 854, 736 ]; assay type: functional
[37] = molecular target: T5, Neuropeptide Y receptor type 2 (Homo sapiens, UniProt P49146); assay type: functional, cell-based;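 further: HEK293 cells expressing the receptor and a CNG channel; stimulus was NPY near EC95 followed by isoproterenol to raise cAMP; antagonist potency measured as restoring cAMP signal that NPY suppresses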
[38] = molecular target: T6, Neuropeptide Y receptor type 1 (Homo sapiens, UniProt P25929); assay type: functional;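 further: HEK293 cells with a CNG channel challenged with NPY then isoproterenol; potency as antagonist that reverses NPY suppression of cAMP signal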
[39] = molecular target: T7, Microphthalmia-associated transcription factor (Homo sapiens, UniProt O75030); assay: TRPM1 promoter luciferase signal decrease, dose response, MITF inhibitor project, cell-based, SK-MEL-5, cherry-picked, set 3 (AID 493073); assay type: functional
T7 sequence (O75030 whole entry): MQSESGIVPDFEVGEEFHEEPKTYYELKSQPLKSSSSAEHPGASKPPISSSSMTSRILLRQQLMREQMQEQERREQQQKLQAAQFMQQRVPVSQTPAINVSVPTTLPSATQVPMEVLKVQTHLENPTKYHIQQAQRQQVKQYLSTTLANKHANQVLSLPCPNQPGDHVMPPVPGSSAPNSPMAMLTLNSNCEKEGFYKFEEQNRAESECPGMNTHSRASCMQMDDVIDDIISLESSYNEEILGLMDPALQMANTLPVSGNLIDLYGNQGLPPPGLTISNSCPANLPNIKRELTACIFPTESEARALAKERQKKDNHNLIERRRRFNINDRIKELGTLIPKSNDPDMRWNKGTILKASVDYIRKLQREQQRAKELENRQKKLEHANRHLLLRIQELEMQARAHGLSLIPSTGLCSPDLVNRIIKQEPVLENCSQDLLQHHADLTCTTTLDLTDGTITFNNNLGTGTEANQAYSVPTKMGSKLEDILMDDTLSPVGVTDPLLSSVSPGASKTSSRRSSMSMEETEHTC

[40] = molecular target: T5, Neuropeptide Y receptor type 2; assay: NPY-Y2 antagonist potency, selectivity check, dose response, counter-screen for NPY-Y1 antagonist project, cell-based (AID 1278); assay type: functional
[41] = system: HEK293; assay: cells; assay type: functional, cell-based; conditions: Homo sapiens
[42] = system: HEK293; assay: NOD1 signaling inhibitors, primary screen, cell-based, luminescence, uHTS (AID 1578); assay type: functional; conditions: Homo sapiens
[43] = system: HEK293; assay: cells; assay type: functional, cell-based; conditions: Homo sapiens; remark: listed apart in the source
[44] = molecular target: T6, Neuropeptide Y receptor type 1; assay: NPY-Y1 receptor antagonist potency, dose response, cell-based (AID 1277); assay type: functional
[45] = system: HEK293; assay: NOD2 signaling inhibitors in MDP-stimulated cells, cell-based, uHTS, luminescence (AID 2001); assay type: functional; conditions: Homo sapiens
[46] = molecular target: Bcl-2-like protein 10 (Homo sapiens, UniProt Q9HD36); assay: Biochemical TR3 FP assay of Bcl-B inhibitor potency, EC50 (AID 1243); assay type: functional
Chain of Bcl-2-like protein 10 (Q9HD36 whole entry): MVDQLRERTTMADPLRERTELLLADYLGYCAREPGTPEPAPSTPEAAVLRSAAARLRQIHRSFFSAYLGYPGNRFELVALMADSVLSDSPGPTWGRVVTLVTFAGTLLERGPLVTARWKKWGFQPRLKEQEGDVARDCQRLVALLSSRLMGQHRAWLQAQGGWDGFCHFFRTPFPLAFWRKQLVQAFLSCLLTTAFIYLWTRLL

T5 sequence (P49146 whole entry): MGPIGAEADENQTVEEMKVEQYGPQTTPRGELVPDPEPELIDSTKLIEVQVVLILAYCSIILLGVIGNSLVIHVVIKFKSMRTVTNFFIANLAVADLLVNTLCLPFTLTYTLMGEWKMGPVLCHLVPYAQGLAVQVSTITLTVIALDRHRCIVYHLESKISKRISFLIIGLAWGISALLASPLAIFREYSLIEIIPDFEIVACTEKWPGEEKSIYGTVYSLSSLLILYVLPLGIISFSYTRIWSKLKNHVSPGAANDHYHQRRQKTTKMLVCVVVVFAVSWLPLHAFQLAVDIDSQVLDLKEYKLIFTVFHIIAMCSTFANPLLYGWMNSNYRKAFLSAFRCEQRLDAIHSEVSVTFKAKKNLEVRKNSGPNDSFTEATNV
T4 sequence (Q92731 whole entry): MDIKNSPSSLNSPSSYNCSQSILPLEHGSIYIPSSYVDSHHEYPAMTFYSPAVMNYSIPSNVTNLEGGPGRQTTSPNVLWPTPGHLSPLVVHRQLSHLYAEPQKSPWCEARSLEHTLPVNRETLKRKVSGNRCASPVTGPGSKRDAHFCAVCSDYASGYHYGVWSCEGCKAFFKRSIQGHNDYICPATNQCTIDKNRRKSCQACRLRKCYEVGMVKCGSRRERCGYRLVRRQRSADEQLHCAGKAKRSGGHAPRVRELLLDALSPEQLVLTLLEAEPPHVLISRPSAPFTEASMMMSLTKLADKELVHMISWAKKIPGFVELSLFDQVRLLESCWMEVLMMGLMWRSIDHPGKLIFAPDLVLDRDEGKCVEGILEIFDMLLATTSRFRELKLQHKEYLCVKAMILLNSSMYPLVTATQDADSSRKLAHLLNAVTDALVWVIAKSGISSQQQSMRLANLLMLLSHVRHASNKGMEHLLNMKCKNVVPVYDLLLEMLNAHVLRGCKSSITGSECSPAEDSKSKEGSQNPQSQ
T3 sequence (Q00975 whole entry): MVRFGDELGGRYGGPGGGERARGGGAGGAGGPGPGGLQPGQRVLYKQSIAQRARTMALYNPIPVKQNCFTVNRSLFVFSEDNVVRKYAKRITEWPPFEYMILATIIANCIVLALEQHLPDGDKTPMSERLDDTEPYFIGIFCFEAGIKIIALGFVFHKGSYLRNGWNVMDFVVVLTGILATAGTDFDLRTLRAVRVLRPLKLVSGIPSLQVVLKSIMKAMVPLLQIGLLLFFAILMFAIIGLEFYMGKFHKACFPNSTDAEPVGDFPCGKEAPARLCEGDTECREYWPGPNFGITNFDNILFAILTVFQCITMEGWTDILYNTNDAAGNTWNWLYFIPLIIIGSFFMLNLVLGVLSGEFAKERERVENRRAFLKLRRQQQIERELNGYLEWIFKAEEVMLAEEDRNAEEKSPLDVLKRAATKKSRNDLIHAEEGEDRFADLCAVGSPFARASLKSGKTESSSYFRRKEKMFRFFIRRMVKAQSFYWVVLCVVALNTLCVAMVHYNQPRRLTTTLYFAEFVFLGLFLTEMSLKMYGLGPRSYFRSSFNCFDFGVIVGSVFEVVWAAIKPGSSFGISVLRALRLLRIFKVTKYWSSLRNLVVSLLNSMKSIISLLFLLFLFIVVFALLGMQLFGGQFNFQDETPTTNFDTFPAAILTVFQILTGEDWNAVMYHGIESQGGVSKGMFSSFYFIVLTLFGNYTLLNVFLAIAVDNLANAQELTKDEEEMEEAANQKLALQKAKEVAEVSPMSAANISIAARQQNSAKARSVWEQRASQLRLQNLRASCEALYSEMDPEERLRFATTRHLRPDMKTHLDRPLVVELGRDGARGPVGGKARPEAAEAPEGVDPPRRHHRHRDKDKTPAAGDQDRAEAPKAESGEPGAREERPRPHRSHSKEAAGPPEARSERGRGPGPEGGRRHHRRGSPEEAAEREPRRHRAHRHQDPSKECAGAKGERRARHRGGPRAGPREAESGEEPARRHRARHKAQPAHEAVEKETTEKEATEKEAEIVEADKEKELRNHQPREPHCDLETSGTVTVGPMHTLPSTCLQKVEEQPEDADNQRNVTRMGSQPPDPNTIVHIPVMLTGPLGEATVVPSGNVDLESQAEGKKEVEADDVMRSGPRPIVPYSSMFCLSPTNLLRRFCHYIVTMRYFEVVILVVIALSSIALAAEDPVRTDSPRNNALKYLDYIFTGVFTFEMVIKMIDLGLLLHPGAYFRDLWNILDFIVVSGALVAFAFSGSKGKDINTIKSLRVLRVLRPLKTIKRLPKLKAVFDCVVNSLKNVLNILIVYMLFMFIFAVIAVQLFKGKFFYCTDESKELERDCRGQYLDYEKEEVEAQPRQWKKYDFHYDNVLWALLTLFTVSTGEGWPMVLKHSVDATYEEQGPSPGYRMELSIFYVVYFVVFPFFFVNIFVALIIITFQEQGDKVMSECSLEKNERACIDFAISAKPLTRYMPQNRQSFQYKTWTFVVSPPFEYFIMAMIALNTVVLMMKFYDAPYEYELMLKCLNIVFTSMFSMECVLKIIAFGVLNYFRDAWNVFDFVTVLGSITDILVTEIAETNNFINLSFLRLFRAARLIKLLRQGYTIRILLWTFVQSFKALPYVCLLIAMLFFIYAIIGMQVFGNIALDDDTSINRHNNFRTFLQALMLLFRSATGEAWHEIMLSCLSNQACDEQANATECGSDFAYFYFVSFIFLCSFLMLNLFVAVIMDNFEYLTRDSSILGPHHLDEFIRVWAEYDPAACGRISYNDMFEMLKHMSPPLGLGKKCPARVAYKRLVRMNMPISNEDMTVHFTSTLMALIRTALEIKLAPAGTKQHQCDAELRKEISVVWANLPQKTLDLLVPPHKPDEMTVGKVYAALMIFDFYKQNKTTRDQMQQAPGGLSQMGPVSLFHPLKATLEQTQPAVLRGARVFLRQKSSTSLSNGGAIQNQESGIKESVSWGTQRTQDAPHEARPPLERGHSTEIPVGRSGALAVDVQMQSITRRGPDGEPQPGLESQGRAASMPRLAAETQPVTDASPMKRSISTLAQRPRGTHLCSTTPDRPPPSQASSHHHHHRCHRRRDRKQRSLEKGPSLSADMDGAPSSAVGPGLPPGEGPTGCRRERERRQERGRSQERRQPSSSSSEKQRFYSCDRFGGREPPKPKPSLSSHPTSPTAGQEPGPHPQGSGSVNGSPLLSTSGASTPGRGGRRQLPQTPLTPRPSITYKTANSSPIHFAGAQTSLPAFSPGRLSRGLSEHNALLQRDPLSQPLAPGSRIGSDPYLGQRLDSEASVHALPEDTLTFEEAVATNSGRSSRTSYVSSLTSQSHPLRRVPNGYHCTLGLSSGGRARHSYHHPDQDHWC
T3 sequence (Q02410 whole entry): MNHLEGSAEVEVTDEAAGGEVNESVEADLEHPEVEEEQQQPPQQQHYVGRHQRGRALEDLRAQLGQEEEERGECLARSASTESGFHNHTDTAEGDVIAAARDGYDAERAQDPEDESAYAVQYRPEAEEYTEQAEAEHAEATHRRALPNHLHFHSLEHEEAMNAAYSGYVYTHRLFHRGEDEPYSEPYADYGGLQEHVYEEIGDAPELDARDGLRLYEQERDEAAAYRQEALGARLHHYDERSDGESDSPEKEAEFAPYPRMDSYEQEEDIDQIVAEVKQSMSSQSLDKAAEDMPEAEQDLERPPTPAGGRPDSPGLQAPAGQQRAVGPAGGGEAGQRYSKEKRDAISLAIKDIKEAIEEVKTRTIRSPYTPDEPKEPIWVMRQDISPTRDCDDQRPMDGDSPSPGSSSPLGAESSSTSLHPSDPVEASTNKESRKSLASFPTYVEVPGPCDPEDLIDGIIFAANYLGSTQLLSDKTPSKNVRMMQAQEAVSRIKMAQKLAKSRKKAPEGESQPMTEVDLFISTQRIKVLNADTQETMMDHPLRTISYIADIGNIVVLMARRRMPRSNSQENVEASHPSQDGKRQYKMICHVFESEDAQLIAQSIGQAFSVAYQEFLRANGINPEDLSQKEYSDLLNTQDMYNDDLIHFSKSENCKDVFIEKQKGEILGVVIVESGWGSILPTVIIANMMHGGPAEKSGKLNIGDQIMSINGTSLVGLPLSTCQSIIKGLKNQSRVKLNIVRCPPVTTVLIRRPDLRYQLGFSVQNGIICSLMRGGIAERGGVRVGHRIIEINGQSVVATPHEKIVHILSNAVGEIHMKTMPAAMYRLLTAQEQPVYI
T6 sequence (P25929 whole entry): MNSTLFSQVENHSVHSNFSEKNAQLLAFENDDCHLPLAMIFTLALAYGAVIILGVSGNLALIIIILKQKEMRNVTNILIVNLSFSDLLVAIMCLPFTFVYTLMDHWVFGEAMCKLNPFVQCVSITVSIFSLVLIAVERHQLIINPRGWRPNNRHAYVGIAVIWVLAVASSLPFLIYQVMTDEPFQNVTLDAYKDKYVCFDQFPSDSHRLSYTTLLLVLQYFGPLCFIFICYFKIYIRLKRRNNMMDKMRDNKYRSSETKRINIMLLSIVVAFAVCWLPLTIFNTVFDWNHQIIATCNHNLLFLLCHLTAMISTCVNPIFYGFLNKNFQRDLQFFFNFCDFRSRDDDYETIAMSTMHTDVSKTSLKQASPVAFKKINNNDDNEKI
Chain of Sphingosine 1-phosphate receptor 2 (O95136 whole entry): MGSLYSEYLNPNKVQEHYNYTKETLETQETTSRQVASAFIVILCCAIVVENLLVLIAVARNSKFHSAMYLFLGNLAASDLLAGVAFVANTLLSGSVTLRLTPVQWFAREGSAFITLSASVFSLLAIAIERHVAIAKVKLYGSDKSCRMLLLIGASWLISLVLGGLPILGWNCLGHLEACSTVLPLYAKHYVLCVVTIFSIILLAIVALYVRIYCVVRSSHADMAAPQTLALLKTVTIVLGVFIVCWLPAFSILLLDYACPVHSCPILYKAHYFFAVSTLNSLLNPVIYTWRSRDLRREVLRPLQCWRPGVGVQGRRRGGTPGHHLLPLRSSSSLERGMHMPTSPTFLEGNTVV

Cc1ccc(C(=O)Nc2nc3ccccc3[nH]2)cc1
AC50 [1]: 29.2 µM (active) | IC50 [2]: > 13.3 µM (not active) | AC50 [3]: 1.29 µM (active) | AC50 [4]: > 52 µM (inactive) | AC50 [5]: 35.2 µM (active) | AC50 [6]: 1.45 µM (active)

CC(=O)Oc1ccc(/C=N\NC(=O)c2cc3c(ccc4ccccc43)o2)cc1
IC50 [7]: 10.9 µM (active) | IC50 [8]: 4.3 µM (active) | EC50 [9]: > 195 µM (not active) | IC50 [10]: 4.06 µM (active) | IC50 [11]: > 100 µM (active) | IC50 [12]: > 50 µM (inactive) | IC50 [13]: 75.6 µM (active) | IC50 [14]: 30 µM (active)

CC(C)c1ccc(-n2nnnc2SCc2nc(N)nc(N)n2)cc1
EC50 [15]: > 100 µM (not active)

O=C(Nc1ccc(OC(F)F)c(Cl)c1)C(c1ccccc1)c1ccccc1
AC50 [16]: 8.95 µM (active) | EC50 [17]: > 60 µM (inconclusive) | IC50 [18]: 1.25 µM (active) | IC50 [19]: 4.07 µM (active) | EC50 [20]: 1.29 µM (active)

O=C(Nc1nc(NC(=O)c2ccco2)n(-c2ccccc2)n1)c1ccccc1
EC50 [21]: 10 µM (active) | AC50 [16]: 2.96 µM (active) | IC50 [22]: 85.9 µM (active) | EC50 [23]: 7.85 µM (active) | EC50 [24]: > 350 µM (not active) | AC50 [25]: 13.4 µM (active) | EC50 [26]: 5.2 µM (active) | EC50 [27]: > 100 µM (active) | AC50 [28]: 127 µM (active) | EC50 [29]: 3.73 µM (active) | EC50 [30]: 6.1 µM (active) | EC50 [31]: > 350 µM (not active)

CN1C(=O)CC(C(=O)O)S/C1=N/c1cc(Cl)c(O)c(Cl)c1 (centres undefined)
IC50 [32]: > 109 µM (not active) | IC50 [33]: 26.9 µM (active)

COc1ccc(Cn2nc(C)cc2OC(=O)c2c(F)cccc2F)cc1
IC50 [34]: > 133 µM (active) | CC50 [35]: > 200 µM (active)

Cc1cc(C(=O)COC(=O)CCS(=O)(=O)c2ccccc2)c(C)n1Cc1ccccc1
EC50 [36]: > 30 µM (not active)

CCOc1ccc(Oc2c(/C=N/NC(C)=O)c(C)nn2-c2ccccc2)cc1
IC50 [37]: 4.53 µM (active) | IC50 [38]: 8.9 µM (active)

CC1CC(C)CN(C2=CC(=[N+]3CCCC3)CC(C)(C)C2)C1 (centres undefined)
EC50 [17]: > 60 µM (not active) | AC50 [39]: 2.24 µM (active) | IC50 [40]: > 35 µM (not active) | IC50 [41]: 7.24 µM (active) | EC50 [42]: 2.22 µM (active) | EC50 [20]: 0.159 µM (active) | IC50 [43]: > 20 µM (inactive) | IC50 [44]: 15.1 µM (not active) | IC50 [45]: 12.3 µM (inactive)

Cc1c(Cl)ccc2c1NC(C(=O)O)C1CC=CC21 (centres undefined)
EC50 [46]: 5.21 µM (active)
